Experimental data: patent US8133909B2 (Hoffmann-La Roche Inc., priority 2008, dated 2012)
Counter-ions that a name gives are not always drawn.

Biological target: T1, human orexin-2 (hOX2) receptors (Homo sapiens, UniProt O43614)
T1 construct: expressed in transfected cells
T1 sequence (O43614 1-444): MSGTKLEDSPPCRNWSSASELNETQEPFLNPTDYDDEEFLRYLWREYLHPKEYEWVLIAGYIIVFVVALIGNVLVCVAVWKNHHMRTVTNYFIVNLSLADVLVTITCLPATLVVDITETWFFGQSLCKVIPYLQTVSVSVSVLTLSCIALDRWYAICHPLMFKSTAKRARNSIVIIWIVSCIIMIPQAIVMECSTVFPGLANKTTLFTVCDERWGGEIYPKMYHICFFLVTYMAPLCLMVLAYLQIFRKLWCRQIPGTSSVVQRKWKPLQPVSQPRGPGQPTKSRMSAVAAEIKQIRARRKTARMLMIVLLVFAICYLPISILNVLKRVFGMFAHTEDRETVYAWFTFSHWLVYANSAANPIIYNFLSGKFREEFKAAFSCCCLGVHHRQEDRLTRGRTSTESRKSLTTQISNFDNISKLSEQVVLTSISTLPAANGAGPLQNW
Assay: Intracellular Ca2+ mobilization assay (FLIPR), antagonism of orexin-A
Format: cell-based
Conditions: CHO(dHFr-) cells stably expressing hOX2; orexin-A at EC80 as agonist; antagonist applied 25 min before; Kb=IC50/(1+[A]/EC50); read-out: Kb (μM) OX2R (human)
Procedure: Intracellular Ca^2+ Mobilization Assay
The Chinese Hamster Ovary (dHFr—) mutant cell line stably expressing human orexin-1 (hOX1) or human orexin-2 (hOX2) receptors were maintained in Dulbecco's Modified Eagle Medium (1X) with GlutaMax™ 1, 4500 mg/L D-Glucose and Sodium Pyruvate (Catalog No. 31966-021, Invitrogen, Carlsbad, Calif.), 5% dialyzed fetal calf serum (Catalog No. 26400-044), 100 μg/ml penicillin and 100 μg/ml streptomycin. The cells were seeded at 5×10^4 cells/well in the poly-D-lysine treated, 96-well, black/clear-bottomed plates (Catalog No. BD356640, BD Biosciences, Palo Alto, Calif.). 24 h later, the cells were loaded for 1 h at 37° C. with 4 μM Flou-4 acetoxymethyl ester (Catalog No. F-14202, Molecular Probes, Eugene, Oreg.) in FLIPR buffer (1×HBSS, 20 mM HEPES, 2.5 mM Probenecid). Hanks' Balanced Salt Solution (HBSS) (10×) (catalog No. 14065-049) and HEPES (1M) (catalog No. 15630-056) were purchased from Invitrogen, Carlsbad, Calif. Probenecid (250 mM) (catalog No. P8761) was from Sigma, Buchs, Switzerland. The cells were washed five times with FLIPR buffer to remove excess dye and intracellular calcium mobilization, [Ca^2+]i were measured using a Fluorometric Imaging Plate Reader (FLIPR-96, Molecular Devices, Menlo Park, Calif.) as described previously (Malherbe et al., Mol. Pharmacol., 64, 823-832, 2003). Orexin A (catalog No. 1455, Toris Cookson Ltd, Bristol, UK) was used as agonist. Orexin A (50 mM stock solution in DMSO) was diluted in FLIPR buffer +0.1% BSA. The EC50 and EC80 values of orexin-A were measured daily from standard agonist concentration-response curves in CHO(dHFr—)—OX1R and —OX2R cell lines. All compounds were dissolved in 100% DMSO. Inhibition curves were determined by addition of 11 concentrations (0.0001-10 μM) of inhibitory compounds and using EC80 value of orexin-A as agonist (a concentration which gave 80% of max agonist response, determined daily). The antagonists were applied 25 min (incubation at 37° C.) before the application of the agonist. Responses were measured as peak increase in fluorescence minus basal, normalized to the maximal stimulatory effect induced by EC80 value of orexin-A or orexin- B. Inhibition curves were fitted according to the Hill equation: y=100/(1+(x/IC50)^nH), where nH=slope factor using Excel-fit 4 software (Microsoft). Kb values were calculated according to the following equation Kb=IC50/(1+[A]/EC50) where A is the concentration of agonist added which is very close to agonist EC80 value, and IC50 and EC50 values were derived from the antagonist inhibition and orexin-A or B agonist curves, respectively.

Row | Structure (SMILES) | Kb
1 | O=C(C(O)c1ccc(F)cc1)N(CCc1ccc(C(F)(F)F)cn1)c1ccc(OC(F)F)c(OC(F)F)c1 (racemic) [Example 96, (R,S)—N-(3,4-Bis-difluoromethoxy-phenyl)-2-(4-fluoro-phenyl)-2-hydroxy-N-[2-(5-trifluoromethyl-pyridin-2-yl)-ethyl]-acetamide] | 0.0216 µM
2 | O=C([C@@H](O)c1ccccc1)N(CCc1ccc(C(F)(F)F)nc1)c1ccc2c(c1)CCCC2 [Example 12, (S)-2-Hydroxy-2-phenyl-N-(5,6,7,8-tetrahydro-naphthalen-2-yl)-N-[2-(6-trifluoromethyl-pyridin-3-yl)-ethyl]-acetamide] | 0.0015 µM
3 | O=C([C@@H](O)c1ccc(F)cc1)N(CCc1ccc(C(F)(F)F)nc1)c1ccc2c(c1)C(O)CCO2 (single isomer, unassigned) [Example 101, (S)-2-(4-Fluoro-phenyl)-2-hydroxy-N—((R or S)-4-hydroxy-chroman-6-yl)-N-[2-(6-trifluoromethyl-pyridin-3-yl)-ethyl]-acetamide] | 0.0116 µM
4 | COC(=O)c1cc(N(CCc2ccc(C(F)(F)F)cn2)C(=O)C(O)c2ccc(F)cc2)ccc1Cl (racemic) [Example 99, (R,S)-2-Chloro-5-{[2-(4-fluoro-phenyl)-2-hydroxy-acetyl]-[2-(5-trifluoromethyl-pyridin-2-yl)-ethyl]-amino}-benzoic acid methyl ester] | 0.0285 µM
5 | CCn1nc(C)c2cc(N(CCc3ccc(C(F)(F)F)nc3)C(=O)[C@@H](O)c3ccccc3)ccc21 [Example 48, (S)—N-(1-Ethyl-3-methyl-1H-indazol-5-yl)-2-hydroxy-2-phenyl-N-[2-(6-trifluoromethyl-pyridin-3-yl)-ethyl]-acetamide] | 0.07 µM
6 | COc1cc(N(CCc2ccc(C(F)(F)F)nc2)C(=O)[C@@H](O)c2ccccc2)ccc1C [Example 19, (S)-2-Hydroxy-N-(3-methoxy-4-methyl-phenyl)-2-phenyl-N-[2-(6-trifluoromethyl-pyridin-3-yl)-ethyl]-acetamide] | 0.0109 µM
7 | O=C(C(O)c1ccc(F)cc1)N(CCc1ccc(C(F)(F)F)cn1)c1ccc(Cl)c(OC2CC2)c1 (racemic) [Example 103, (R,S)—N-(4-Chloro-3-cyclopropoxy-phenyl)-2-(4-fluoro-phenyl)-2-hydroxy-N-[2-(5-trifluoromethyl-pyridin-2-yl)-ethyl]-acetamide] | 0.0239 µM
8 | Cc1ccc(N(CCc2ccc(C(F)(F)F)nc2)C(=O)[C@@H](N)c2ccc(F)cc2)cc1C [Example 10, (S)-2-Amino-N-(3,4-dimethyl-phenyl)-2-(4-fluoro-phenyl)-N-[2-(6-trifluoromethyl-pyridin-3-yl)-ethyl]-acetamide] | 0.0014 µM
9 | COc1cc(N(CCc2ccc(C(F)(F)F)cn2)C(=O)C(O)c2ccc(F)cc2)ccc1Cl (racemic) [Example 79, (R,S)—N-(4-Chloro-3-methoxy-phenyl)-2-(4-fluoro-phenyl)-2-hydroxy-N-[2-(5-trifluoromethyl-pyridin-2-yl)-ethyl]-acetamide] | 0.0236 µM
10 | O=C(C(O)c1ccc(F)cc1)N(CCc1ccc(C(F)(F)F)cn1)c1ccc(Cl)c(CO)c1 (racemic) [Example 98, (R,S)—N-(4-Chloro-3-hydroxymethyl-phenyl)-2-(4-fluoro-phenyl)-2-hydroxy-N-[2-(5-trifluoromethyl-pyridin-2-yl)-ethyl]-acetamide] | 0.0216 µM
11 | Cc1ccc(N(CCc2ccc(C(F)(F)F)nc2)C(=O)[C@@H](NC2(CN)COC2)c2ccccc2)cc1C [Example 8, (S)-2-(3-Aminomethyl-oxetan-3-ylamino)-N-(3,4-dimethyl-phenyl)-2-phenyl-N-[2-(6-trifluoromethyl-pyridin-3-yl)-ethyl]acetamide] | 0.0263 µM
12 | Cc1ccc(N(CCc2ccc(C(F)(F)F)nc2)C(=O)[C@@H](NC2COC2)c2ccccc2)cc1C [Example 57, (S)—N-(3,4-Dimethyl-phenyl)-2-(oxetan-3-ylamino)-2-phenyl-N-[2-(6-trifluoromethyl-pyridin-3-yl)-ethyl]-acetamide] | 0.0016 µM
13 | COc1ccc(N(CCc2ccc(C(F)(F)F)nc2)C(=O)[C@@H](NC(=O)[C@@H](N)c2ccccc2)c2ccccc2)cc1OC [Example 4, (S)-2-((S)-2-Amino-2-phenyl-acetylamino)-N-(3,4-dimethoxy-phenyl)-2-phenyl-N-[2(6-trifluoromethyl-pyridin-3-yl)-ethyl]-acetamide] | 0.0017 µM
14 | COc1ccc(N(CCc2ccc(C(F)(F)F)nc2)C(=O)[C@@H](N)c2ccccc2)cc1OC [Example 5, (S)-2-Amino-N-(3,4-dimethoxy-phenyl)-2-phenyl-N-[2-(6-trifluoromethyl-pyridin-3-yl)-ethyl]-acetamide] | 0.0005 µM
15 | O=C([C@@H](O)c1ccccc1)N(CCc1ccc(C(F)(F)F)nc1)c1ccc2c(c1)OCCO2 [Example 55, (S)—N-(2,3-Dihydro-benzo[1,4]dioxin-6-yl)-2-hydroxy-2-phenyl-N-[2-(6-trifluoromethyl-pyridin-3-yl)-ethyl]-acetamide] | 0.0142 µM
16 | O=C(C(O)c1ccc(F)cc1)N(CCc1ccc(C(F)(F)F)cn1)c1ccc2c(c1)CCO2 (racemic) [Example 75, (R,S)—N-(2,3-Dihydro-benzofuran-5-yl)-2-(4-fluoro-phenyl)-2-hydroxy-N-[2-(5-trifluoromethyl-pyridin-2-yl)-ethyl]-acetamide] | 0.013 µM
17 | Cc1ccc(N(CCc2ccc(C(F)(F)F)cn2)C(=O)[C@@H](N)c2ccccc2)cc1C [Example 25, (S)-2-Amino-N-(3,4-dimethyl-phenyl)-2-phenyl-N-[2-(5-trifluoromethyl-pyridin-2-yl)-ethyl]-acetamide hydrochloride] | 0.0008 µM
18 | Cc1ccc(CCN(C(=O)[C@@H](N)c2ccccc2)c2ccc(C)c(C)c2)nc1 [Example 21, (S)-2-Amino-N-(3,4-dimethyl-phenyl)-N-[2-(5-methyl-pyridin-2-yl)-ethyl]-2-phenyl-acetamide hydrochloride] | 0.0047 µM
19 | Cn1ccc2ccc(N(CCc3ccc(C(F)(F)F)cn3)C(=O)C(O)c3ccc(F)cc3)cc21 (racemic) [Example 54, (R,S)-2-(4-Fluoro-phenyl)-2-hydroxy-N-(1-methyl-1H-indol-6-yl)-N-[2-(5-trifluoromethyl-pyridin-2-yl)-ethyl]-acetamide] | 0.0078 µM
20 | Cc1ccc(N(CCc2ccc(F)cn2)C(=O)[C@@H](O)c2ccccc2)cc1C [Example 68, (S)—N-(3,4-Dimethyl-phenyl)-N-[2-(5-fluoro-pyridin-2-yl)-ethyl]-2-hydroxy-2-phenyl-acetamide] | 0.0232 µM
21 | Cc1ccc(N(CCc2ccc(C(F)(F)F)nc2)C(=O)[C@@H](O)c2ccc(F)cc2)cc1C [Example 7, (S)—N-(3,4-Dimethyl-phenyl)-2-(4-fluoro-phenyl)-2-hydroxy-N-[2-(6-trifluoromethyl-pyridin-3-yl)-ethyl]-acetamide] | 0.0005 µM
22 | COc1cc(N(CCc2ccc(C(F)(F)F)cn2)C(=O)C(O)c2ccc(F)cc2)ccc1F (racemic) [Example 88, (R,S)—N-(4-Fluoro-3-methoxy-phenyl)-2-(4-fluoro-phenyl)-2-hydroxy-N-[2-(5-trifluoromethyl-pyridin-2-yl)-ethyl]-acetamide] | 0.0106 µM
23 | Cc1ccc(N(CCc2ccc(C(F)(F)F)nc2)C(=O)[C@@H](O)c2ccccc2)cc1 [Example 15, (S)-2-Hydroxy-2-phenyl-N-p-tolyl-N-[2-(6-trifluoromethyl-pyridin-3-yl)-ethyl]-acetamide] | 0.0241 µM
